Test results published in patent US6150335A, “Tic-containing opioid dipeptide derivatives useful as analgesics” (Astra AB, priority 1996, dated 2000).
Where a SMILES comes first, the peptide text is derived from it. [ ]: non-standard residue; d: D form. The star is where a group is joined. Tic = O=C(O)[C@@H]1Cc2ccccc2CN1; NHPhenethyl = c1ccc(CCN*)cc1

Assays:
mice = conditions: S. D. Comer et al. 1993; cited from earlier work
guinea pig ileum (GPI) = experiment: Guinea pig ileum (GPI) bioassay: inhibition of electrically evoked contractions; format: cell-based; conditions: normalized with [Leu5]enkephalin standard, effect primarily μ-mediated
Protocol: (§1) Bioassays based on inhibition of electrically evoked contractions of the mouse vas deferens (MVD) and of the guinea pig ileum (GPI) were performed. In the GPI assay the opioid effect is primarily mediated by μ opioid receptors, whereas in the MVD assay the inhibition of the contractions is mostly due to interaction with δ opioid receptors.
(§2) The GPI and MVD bioassays were carried out as reported in P. W. Schiller et al., Biochem. Biophys. Res. Commun. 85, 1332-1338 (1978) and J. DiMaio et al., J. Med. Chem. 25, 1432-1438 (1982). A log-dose response curve was determined with [Leu^5 ]enkephalin as standard for each ileum and vas preparation, and IC50 values of the compounds being tested were normalized according to A. A. Waterfield et al., Eur. J. Pharmacol. 58, 11-18 (1979).

δ opioid receptor [1] = target: T1, δ opioid receptor (Rattus norvegicus, UniProt P33533); experiment: δ opioid receptor binding assay, displacement of [3H]DSLET from rat brain membranes; conditions: for Ki: rat brain membranes, [3H]DSLET 1.0 nM, Cheng-Prusoff; for Ki^μ/Ki^δ: δ versus μ receptor selectivity
T1 construct: Male Sprague-Dawley rats (300-350 g) from the Canadian Breeding Laboratories were decapitated and after removal of the cerebellum the brains were homogenized; from tissue; host or cells: rat brain (without cerebellum) membranes, male Sprague-Dawley
T1 sequence (P33533 whole entry): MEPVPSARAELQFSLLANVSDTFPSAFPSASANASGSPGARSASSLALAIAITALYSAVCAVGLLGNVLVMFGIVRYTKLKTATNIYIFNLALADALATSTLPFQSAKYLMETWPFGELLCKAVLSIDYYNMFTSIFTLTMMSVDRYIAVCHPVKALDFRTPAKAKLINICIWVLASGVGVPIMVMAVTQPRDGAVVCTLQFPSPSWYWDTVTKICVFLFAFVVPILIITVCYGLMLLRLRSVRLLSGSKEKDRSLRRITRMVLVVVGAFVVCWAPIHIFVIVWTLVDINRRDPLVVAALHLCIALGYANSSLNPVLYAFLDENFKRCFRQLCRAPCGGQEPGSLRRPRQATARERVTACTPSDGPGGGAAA
Protocol: (§3) μ and δ opioid receptor binding constants (Ki^μ,Ki^δ) of the compounds were determrined by displacement of relatively selective μ and δ radioligands from binding sites in rat brain membrane preparations calculated from the measured IC50 values on the basis of the equation by Cheng and Prusoff, (Y. C. Cheng and W. H. Prusoff Biochem. Pharmnacol. 22, 3099-3102 (1973)).
The μ-, δ- and κ-opioid receptor affinities of all new analogs were determined in binding assays based on displacement of μ-, δ- and κ-selective radioligands from rat brain membrane binding sites. In the case of κ-ligands guinea pig brain homogenates were used, since the relative proportion of κ-binding sites is higher in guinea pig brain than in rat brain. The experimental procedure being used in our laboratory represents a modified version of the binding assay described by Pasternak et al. (Mol. Pharnacol. 11, 340-351 (1975)). Male Sprague-Dawley rats (300-350 g) from the Canadian Breeding Laboratories were decapitated and after removal of the cerebellum the brains were homogenized in 30 volumes of ice-cold standard buffer (50 mnM Tris HCl , pH 7.7). After centrifugation at 30,000×g for 30 min at 4° C. the membranes were reconstituted in the original volume of standard buffer and incubated for 30 min at 37° C. (to release bound endogenous ligands). Subsequent centrifugation and resuspension of the pellet in the initial volume of fresh standard buffer yielded the final membrane suspension. Aliquots (2 ml) of the membrane preparations were incubated for 1-2 h at 25° C. with 1 ml standard buffer containing the peptide to be tested and one of the following radioligands at the final concentration indicated: [^3 H]DAMGO, μ-selective, 0.7 nM; […]; and [^3 H]U69,563, κ-selective, 0.5 nM. The incubation was terminated by filtration through Whatman GF/B filters under vacuum at 4° C. Following two washings with 5 ml portions of ice-cold standard buffer the filters were transferred to scintillation vials and treated with 1 ml Protosol (New England Nuclear) for 30 min prior to addition of 0.5 ml acetic acid and 10 ml Aquasol (New England Nuclear). After shaking for 30 min the vials were counted at an efficiency of 40-45%. All experiments were performed in duplicate and repeated at least three times. Specific binding of each of the three radioligands was defined by performing incubations in the presence of cold DAMGO, DSLET and U69,563, respectively, at a concentration of 1 micromolar. Values of half-maximal inhibition (IC50) of specific binding were obtained graphically from semilogarithmic plots. From the measured IC50-values, binding inhibition constants (Ki) were calculated based on Cheng and Prusoff's equation (Biochem. Pharmacol. 22, 3099-3102 (1973)). Ratios of the Ki -values determined in the μ-, δ- and κ-representative binding assays are a measure of the receptor selectivity of the compound under investigation (e.g. Ki^μ /Ki^μ indicates the selectivity for δ-receptors versus μ-receptors).

mouse vas deferens (MVD) = experiment: Mouse vas deferens (MVD) bioassay: inhibition of electrically evoked contractions; format: cell-based; conditions: for IC50: inhibition of electrically evoked contractions, normalized with [Leu5]enkephalin standard, effect mostly δ-mediated; for GPI/MVD IC50 ratio: ratio of GPI IC50 to MVD IC50
Protocol: as §1, §2

μ opioid receptor = target: T2, μ opioid receptor (Rattus norvegicus, UniProt P33535); experiment: μ opioid receptor binding assay, displacement of [3H]DAMGO from rat brain membranes; conditions: [3H]DAMGO 0.7 nM, Cheng-Prusoff
T2 construct: Male Sprague-Dawley rats (300-350 g) from the Canadian Breeding Laboratories were decapitated and after removal of the cerebellum the brains were homogenized; from tissue; host or cells: rat brain (without cerebellum) membranes, male Sprague-Dawley
T2 sequence (P33535 whole entry): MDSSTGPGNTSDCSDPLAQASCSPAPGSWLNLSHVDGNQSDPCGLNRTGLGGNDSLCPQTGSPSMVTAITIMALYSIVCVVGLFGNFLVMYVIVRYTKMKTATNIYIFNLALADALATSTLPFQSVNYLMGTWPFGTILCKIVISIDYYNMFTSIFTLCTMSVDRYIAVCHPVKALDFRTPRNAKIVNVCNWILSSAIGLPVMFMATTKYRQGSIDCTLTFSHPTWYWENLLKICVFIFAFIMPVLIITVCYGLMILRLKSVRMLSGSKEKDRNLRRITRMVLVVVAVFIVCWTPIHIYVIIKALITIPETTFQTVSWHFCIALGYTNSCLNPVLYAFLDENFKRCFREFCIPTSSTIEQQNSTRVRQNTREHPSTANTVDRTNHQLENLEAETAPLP
Protocol: as §3
The μ-, δ- and κ-opioid receptor affinities of all new analogs were determined in binding assays based on displacement of μ-, δ- and κ-selective radioligands from rat brain membrane binding sites. In the case of κ-ligands guinea pig brain homogenates were used, since the relative proportion of κ-binding sites is higher in guinea pig brain than in rat brain. The experimental procedure being used in our laboratory represents a modified version of the binding assay described by Pasternak et al. (Mol. Pharnacol. 11, 340-351 (1975)). Male Sprague-Dawley rats (300-350 g) from the Canadian Breeding Laboratories were decapitated and after removal of the cerebellum the brains were homogenized in 30 volumes of ice-cold standard buffer (50 mnM Tris HCl , pH 7.7). After centrifugation at 30,000×g for 30 min at 4° C. the membranes were reconstituted in the original volume of standard buffer and incubated for 30 min at 37° C. (to release bound endogenous ligands). Subsequent centrifugation and resuspension of the pellet in the initial volume of fresh standard buffer yielded the final membrane suspension. Aliquots (2 ml) of the membrane preparations were incubated for 1-2 h at 25° C. with 1 ml standard buffer containing the peptide to be tested and one of the following radioligands at the final concentration indicated: [^3 H]DAMGO, μ-selective, 0.7 nM; [^3 H]DSLET, […] nM; and [^3 H]U69,563, κ-selective, 0.5 nM. The incubation was terminated by filtration through Whatman GF/B filters under vacuum at 4° C. Following two washings with 5 ml portions of ice-cold standard buffer the filters were transferred to scintillation vials and treated with 1 ml Protosol (New England Nuclear) for 30 min prior to addition of 0.5 ml acetic acid and 10 ml Aquasol (New England Nuclear). After shaking for 30 min the vials were counted at an efficiency of 40-45%. All experiments were performed in duplicate and repeated at least three times. Specific binding of each of the three radioligands was defined by performing incubations in the presence of cold DAMGO, DSLET and U69,563, respectively, at a concentration of 1 micromolar. Values of half-maximal inhibition (IC50) of specific binding were obtained graphically from semilogarithmic plots. From the measured IC50-values, binding inhibition constants (Ki) were calculated based on Cheng and Prusoff's equation (Biochem. Pharmacol. 22, 3099-3102 (1973)). Ratios of the Ki -values determined in the μ-, δ- and κ-representative binding assays are a measure of the receptor selectivity of the compound under investigation (e.g. Ki^μ /Ki^μ indicates the selectivity for δ-receptors versus μ-receptors).

δ opioid receptor [2] = conditions: reported at 23rd European Peptide Symposium 1994; cited from earlier work
mouse tail flick test = conditions: J. Kamei et al. 1995; cited from earlier work

Row | SMILES | toxicity in mice (mice) | IC50 (guinea pig ileum (GPI)) | Ki (δ opioid receptor [1]) | Ki^μ/Ki^δ (δ opioid receptor [1]) | IC50 (mouse vas deferens (MVD)) | GPI/MVD IC50 ratio (mouse vas deferens (MVD)) | Ki (μ opioid receptor) | δ agonist / antagonist properties (δ opioid receptor [2]) | antinociceptive effect (mouse tail flick test)
1 | C=CCN1C[C@H](C)N([C@H](c2ccc(C(=O)N(CC)CC)cc2)c2cccc(O)c2)C[C@H]1C (racemic) [BW 373U86, (±)-4-(a-R*)-a-(2S*,5R*)-4-allyl-2,5-dimethyl-1-piperazinyl)-3-hydroxybenzyl)-N,N-diethylbenzamide] | produced significant toxicity, manifested behaviorally as convulsions and barrel rolling | – | – | – | – | – | – | – | –
2 | N[C@@H](Cc1ccc(O)cc1)C(=O)N1Cc2ccccc2C[C@H]1C(=O)NCC(c1ccc([N+](=O)[O-])cc1)c1ccc([N+](=O)[O-])cc1 [Example 24] | – | 5.2 ± 1.1 µM | 0.00717 ± 0.00024 µM | 88.6 | 0.00891 ± 0.00153 µM | 584 | 0.635 ± 0.109 µM | – | –
3 | Nc1ccc(C(CNC(=O)[C@@H]2Cc3ccccc3CN2C(=O)[C@@H](N)Cc2ccc(O)cc2)c2ccc(N)cc2)cc1 [Example 25] | – | > 10 µM | 0.00267 ± 0.00083 µM | 2000 | 0.00781 ± 0.00048 µM | > 1280 | 5.34 ± 0.7 µM | – | –
4 | N[C@@H](Cc1ccc(O)cc1)C(=O)N1Cc2ccccc2C[C@H]1C(=O)NCC(c1ccc(Cl)cc1)c1ccc(Cl)cc1 [Example 26] | – | > 10 µM | 0.00282 ± 7e-05 µM | 553 | 0.397 ± 0.033 µM | > 25.2 | 1.56 ± 0.06 µM | – | –
5 | N[C@@H](Cc1ccc(O)cc1)C(=O)N1Cc2ccccc2C[C@H]1C(=O)NCCc1ccccc1[N+](=O)[O-] [Example 29] | – | 1.85 ± 0.54 µM | 0.0077 ± 0.00045 µM | 46.1 | 0.0291 ± 0.0106 µM | 63.6 | 0.355 ± 0.013 µM | – | –
6 | N[C@@H](Cc1ccc(O)cc1)C(=O)N1Cc2ccccc2C[C@H]1C(=O)NCCc1ccccc1 [H-Tyr-Tic-NH--CH2 --CH2 --Ph, reference compound] (H-Tyr-[Tic]-NHPhenethyl) | – | 2.12 µM | 0.00522 ± 2e-05 µM | 13.2 | 0.082 ± 0.01 µM | 25.9 | 0.0691 µM | full, but only moderately potent δ agonist | –
7 | CN1CC[C@]2(c3cccc(O)c3)Cc3nc4ccccc4cc3C[C@H]2C1 [TAN-67, 2-methyl-4α,α-(3-hydroxyphenyl)-1,2,3,4,4a,5,12,12aα-octahydroquinolino[2,3,3-g]isoquinoline] | – | – | – | – | – | – | – | – | no significant antinociceptive effect
